Data published in PMC9320886, “Daily Intraperitoneal Administration of Rosiglitazone Does Not Improve Lung Function or Alveolarization in Preterm Rabbits Exposed to Hyperoxia” (Pharmaceutics, 2022).
Like-named read-outs stand apart in the source and are kept apart here.

Assays:
[1] = pharmacokinetic profiling in preterm rabbits; type: in vivo, rabbit
[2] = Caco-2 permeability assay; type: in vitro ADME; details: human, apical to basolateral
Experimental: Caco-2 cells were purchased from ReadyCell (Barcelona, Spain). The cells arrived already seeded and differentiated (21-days) in 96-well plates (CacoReady 96-well kits, ReadyCell). Cells were maintained in a cell culture medium: Dulbecco’s modified Eagle’s medium (DMEM) 1 g/L glucose containing 10% fetal bovine serum, 1% L-glutamine 200 mM, and 1% penicillin (10,000 U/mL)–streptomycin (10 mg/mL), all from Merck KGaA. The buffer used in the assay was Hanks Balanced Salt Solution (HBSS, Merck). Control compounds were: sulpiride (low permeability control), metoprolol (high permeability control), talinolol (P-glycoprotein transport (Pgp) substrate control), and GF120918 (Elacridar, Pgp inhibitor), all purchased from Merck KGaA.
The day of the experiment, the integrity of the cell monolayers was assessed before and after the assay by measuring the transepithelial electrical resistance (TEER). The permeability of the compounds across the cell monolayer was determined by measuring their transport in both directions: apical to basolateral (A → B) and basolateral to apical (B → A) in the absence and presence of Elacridar (a known P-gp inhibitor). The donor working solution was prepared by dilution of the DMSO stock of the test compound or positive control with HBSS (pH 7.4) to 10 µM. For A → B directional transport, the donor working solution (with test compound or positive control, with or without P-gp inhibitor) was added to the apical (A) and HBSS was added to the basolateral (B) compartment. For B → A directional transport, the donor working solution (with positive control or test compound […], with or without P-gp inhibitor) was added to the basolateral (B) and HBSS was added to the apical (A) compartment. The assay was performed with a Hamilton Star Lab robotic system. Samples were collected at t0 and 2 h after incubation (5% CO2, 95% relative humidity, 37 °C) for LC-MS/MS analyses.
Apparent permeability (Papp) was calculated with the following equation: (5) Papp(cm/sec)=(Vr/C0)×(1/A)×(Cr(t)/t) where Vr is the volume of the solution in the receiving compartment (mL); C0 is the initial test compound concentration in the donor compartment (expressed as area ratio); A is the membrane surface area (0.14 cm^2); Cr (t) is the measured concentration of the receiver well at time t120 (expressed as area ratio); and t is time of incubation (sec).

[3] = design: method as in PMID 19484746; details: PND 13 mice, chow of nursing mice with 2.5–10 mg/kg of RGZ; cited from earlier work
[4] = system: preterm rabbits exposed to hyperoxia; test: pulmonary efficacy, daily intraperitoneal 1 mg/kg, preterm rabbits exposed to hyperoxia; type: in vivo, rabbit; details: daily i.p. 1 mg/kg
Experimental: A total of 31 preterm rabbits with a GA of 28 days delivered from 4 does were included in the efficacy study. After delivery, newborn pups were put in hyperoxia (95% oxygen) for 1 h. Surviving pups were exposed to hyperoxia (95% O2) for 7 days and randomized to receiving daily (from postnatal day (PND) 0 to PND 6) intraperitoneal injections of RGZ at 1 mg/kg (n = 15) or the vehicle (n = 16).
Pups were placed on a sterilized soft bedding and remained in the incubator except for the feeding and treatments. Pups were fed 4 h after delivery on PND 0 with a milk replacer (Day One®, Protein 30%, Fat 50%; FoxValley, Aurora, IL, USA). Probiotics, electrolytes, and vitamins are added during the first 7 days (Bio-Lapis®; Probiotics International Ltd., Somerser, UK) and immunoglobulins during the first 2 days (Col-o-Cat®, SanoBest, Hertogenbosch, Netherlands). The standard feeding protocol consisted of incrementally increasing the amounts of milk replacer (PND 0: 40 mg/kg, PND 1: 50 mg/kg/day, PND 2: 75 mg/kg, PND 3–6: 100 mg/kg/day). On Day 2, vitamin K1 was administered intramuscularly (0.002 mg/kg BW, Konakion pediatrique®; Roche, Basel, Switzerland).
At Day 7, invasive lung function testing was performed using the forced oscillation technique with the flexiVent^TM apparatus (SCIREQ, Montréal, Canada). […]
The following parameters were measured: total inspiratory capacity, resistance of the respiratory system (Rrs), lung tissue damping (G), lung tissue elastance (H), and static compliance (Cst). […] The average of three measurements was calculated and used in the analysis. […]
The left lung and the right lungs were embedded in paraffin, cut, and stained with hematoxylin and eosin (H&E) following standard histology protocols. The radial alveolar count (RAC) was performed by an expert pathologist blinded to the experimental design by drawing a perpendicular line from the lumen of the terminal bronchiole to the nearest connective tissue septum or pleural margin and the number of saccules or alveoli crossed by this line was counted as previously described. […]

[5] = rabbit, inhaled or intranasal, lung, intratracheal 1 mg/kg

## CN(CCOc1ccc(CC2SC(=O)NC2=O)cc1)c1ccccn1 (stereo not drawn) [RGZ, rosiglitazone]
[1]; intratracheal or intraperitoneal 1 mg/kg
  detectability in plasma and lung: detectable levels in both compartments up to 24 h
[1]; plasma and lung tissue, irrespective of the administration method, 1 mg/kg
  time of peak: 0.25 h
[1]; [5]
  Cmax: 1070 ng/g
  Tmax: 15 min
[1]; rabbit, inhaled or intranasal, plasma, intratracheal 1 mg/kg
  half-life: 900 min
[1]; rabbit, ip, lung, intraperitoneal 1 mg/kg
  Tmax: 15 min
[1]; rabbit, ip, plasma, intraperitoneal 1 mg/kg
  AUC(0-t): 29500 ng·h/mL
[1]; rabbit, lung and plasma, inhaled or intranasal, intratracheal 1 mg/kg, read-out: AUCLung/AUCPlasma
  Kp: 0.7
[1]; rabbit, plasma and lung, ip, 24 h after intraperitoneal administration, 1 mg/kg, read-out: levels in plasma and lung
  concentration at 24 h: > 500 ng/mL
[2]; Caco-2, pH 7.4, with Elacridar (GF120918), concentration not given, with Elacridar, read-out: Papp with Pgp Inhibitor (A–B)
  Papp A→B at 2 h, 10 µM: 16.3 ×10⁻⁶ cm/s
[2]; Caco-2, pH 7.4, 10 µM, 2 h, without Pgp inhibitor, read-out: Papp (A–B)
  Papp A→B at 2 h, 10 µM: 14.5 ×10⁻⁶ cm/s
[3]
  RGZ in the lung tissue: 90.7 pg/g
[4]; PND 7
  weight gain: 43.46 ± 4.84 g
[4]; PND 7, vs vehicle
  alveolarization (RAC): neither improved
  lung function (inspiratory capacity, G, H and Cst): neither improved
